{"source": "patent US20100197743A1", "about": "“Use of sulphur-containing heteroaromatic acid analogues” (Bayer CropScience AG, priority 2008, published 2010)", "tested_on": "black Sigatoka fungus Mycosphaerella figiensis", "assay": "Field study of black Sigatoka control on Cavendish bananas (Stover method)", "format": "in vivo, Mycosphaerella figiensis on Cavendish bananas", "parameters": "key to YLI last determ. (youngest infected leaf): leaf number of youngest leaf showing Sigatoka symptoms; YLI AUDPC / SEV AUDPC: unit not given here", "details": "for SEV last determ. (severity of the disease) / YLI last determ. (youngest infected leaf): foliar spray, eight applications at seven-day intervals, last determination Oct. 23, 2008; for SEV ABBOTT: % severity calculated as described by ABBOTT; for SEV AUDPC / YLI AUDPC: area under the disease progress curve over the complete study period", "excerpt": "If the banana disease caused by the black Sigatoka fungus Mycosphaerella figiensis is not controlled, the latter can destroy the banana leaves and greatly reduce the yield. To control Sigatoka, commercially available fungicides are used which are usually applied to banana plants by foliar application.\nIt was intended to determine whether isotianil is capable of controlling the black Sigatoka infection with reference to studies carried out on Cavendish bananas in Devao del Norte in the southern Philippines.\nCompound I-2 as defined above was formulated as a suspension concentrate formulation (200 SC) with Banol mineral oil and water in a ratio of 0.5 l of compound I-2 (200 SC), 5 l of oil and 74 l of water. The emulsifier used was 0.05 l of Lutensol so as to maintain the oil/water mixture as a stable emulsion.\nAfter the formulation procedure, the mixture was sprayed onto banana trees using engine-driven spray mist applicators which applied a total volume of 80 l/ha.\nThis was followed by eight applications at seven-day intervals between Aug. 28 and Oct. 16, 2008. The isotianil application rate was 50, 75 and 100 g of a.i./ha, respectively.\nFor comparison with the isotianil plots, one plot was left untreated, and a further plot was sprayed with Sico (difenconazole 250 SC), a commercially available fungicide which is used for controlling black Sigatoka. Sico was sprayed together with Banol oil and Lutensol at an application rate of 100 g of a.i./ha, as above.\nEach plot consisted of two banana plants at the BBCH growth stage 1056-1100. Each treatment consisted of three replications.\nAfter the application, the disease level on the banana leaves was determined according to several parameters which are defined by the “Stover method” (Stover, 1971 R. H. Stover, A proposed international scale for estimating intensity of banana leaf spot, Tropical Agriculture).\nYoungest infected leaf (YLI): This parameter records which leaf of the plant was the youngest leaf to show initial symptoms of Sigatoka infection. This is important since this has a direct relationship with the degree of infection, since the youngest leaves are infected last. Under the test conditions, the plants produce approximately one new leaf per week.\nThe severity of the disease (SEV) describes the direct percentage of visual disease on the plant.\nThe youngest infected leaf and the severity of the disease were determined weekly after the first application. The data hereinbelow describe the results of the last determination measured at the end of the experiment, on Oct. 23, 2008. After the weekly determination, moreover, the data were compiled in the form of a graph, and the area under the disease progress curve (AUDPC) was calculated over the complete study period and is listed hereinbelow. Moreover, % severity was calculated as described by ABBOTT."}
{"compound": "N#Cc1ccccc1NC(=O)c1snc(Cl)c1Cl", "note": "[Compound I-2, isotianil]", "values": [{"measurement": "SEV last determ. (severity of the disease)", "setting": "50 g of a.i./ha", "result": 5.3, "unit": "%"}, {"measurement": "YLI last determ. (youngest infected leaf)", "setting": "50 g of a.i./ha", "result": 4}, {"measurement": "SEV ABBOTT", "setting": "50 g of a.i./ha", "result": 72.4, "unit": "%"}, {"measurement": "SEV AUDPC", "setting": "50 g of a.i./ha", "result": 314}, {"measurement": "YLI AUDPC", "setting": "50 g of a.i./ha", "result": 223}, {"measurement": "SEV last determ. (severity of the disease)", "setting": "75 g of a.i./ha", "result": 5, "unit": "%"}, {"measurement": "YLI last determ. (youngest infected leaf)", "setting": "75 g of a.i./ha", "result": 4}, {"measurement": "SEV ABBOTT", "setting": "75 g of a.i./ha", "result": 74, "unit": "%"}, {"measurement": "SEV AUDPC", "setting": "75 g of a.i./ha", "result": 285}, {"measurement": "YLI AUDPC", "setting": "75 g of a.i./ha", "result": 224}, {"measurement": "SEV last determ. (severity of the disease)", "setting": "100 g of a.i./ha", "result": 5.3, "unit": "%"}, {"measurement": "YLI last determ. (youngest infected leaf)", "setting": "100 g of a.i./ha", "result": 4}, {"measurement": "SEV ABBOTT", "setting": "100 g of a.i./ha", "result": 72.6, "unit": "%"}, {"measurement": "SEV AUDPC", "setting": "100 g of a.i./ha", "result": 313}, {"measurement": "YLI AUDPC", "setting": "100 g of a.i./ha", "result": 119}]}
